Biological target: Probable nicotinate-nucleotide adenylyltransferase (Staphylococcus aureus (strain N315)) (UniProt P65502)
Assay: potency of S. aureus NadD blockers – biochemical, colorimetric, uHTS hits, dose response (AID 624317)
Conditions: purified NadD enzyme, colorimetric activity assay

IC50: 35.9 µM
Structure (SMILES): C[c-]1[c-](C)[c-](C)[c-](C)[c-]1C.[Fe].c1cc2nccc(N3CCCC3)[c-]2c1 (stereo unspecified)
